From PMC7125129, “Anti-HIV agent azidothymidine decreases Tet(X)-mediated bacterial resistance to tigecycline in Escherichia coli” (Communications Biology, 2020) come the findings set out here.

Where two headings read alike, the source gives them in different places.

The term IC50 denotes the concentration at which inhibition is half-maximal. Low readings indicate greater potency, high ones weaker potency.

Assay [1] deals with T1, E. fergusonnii 1C4-6 (tet(X4)).
T1 construct: 1C4-6 (tet(X4))
Put plainly: organism not typed. The note with it: read-out: MIC (μg/mL). More on the design: Broth microdilution MIC, bacterial growth inhibition in Mueller-Hinton broth. As to the method: (§1) Bacterial and chemical reagents Sequential culturing of E. coli ATCC 25922 in the presence of subinhibitory levels of tigecycline, azidothymidine, or the combination. After 24 h co-incubation, any cultures that grew at higher than the MIC levels were passaged on drug free MHA plates and the MIC was then determined by broth microdilution. This serial passaging was repeated daily for 30 days. To further evaluate the synergistic activity between tigecycline and three candidates, standard checkerboard microdilution in E. coli B3-1 was performed. […] Thus, we next focused our insights on the potentiation potency of azidothymidine with tigecycline. We first evaluated the stability of the azidothymidine-tigecycline combination in the presence of salt ions and serum, which are two critical factors that affect the in vivo efficacy of drugs[20],[21]. […] However, addition of divalent cations such as Ca^2+ and Mg^2+ (10 mM) abolished its potentiation activity, but EDTA could augment the synergistic effect (Supplementary Fig. 2). Considering that divalent cations and EDTA are associated with membrane permeability, we speculated that entrance of two drugs into bacteria contribute to their activity. Next, we assessed the potency of this combination in a panel of clinical isolates from animals and environmental samples (Supplementary Tables 2 and 3). […]

A further assay concerns T2, E. brevis S1-3 (tet(X3)).
T2 construct: S1-3 (tet(X3))
Put plainly: organism not typed. The arrangement: Broth microdilution MIC, bacterial growth inhibition in Mueller-Hinton broth. As to conditions: read-out: MIC (μg/mL). Here is the method:
as §1

Another assay has as its target T3, Tet(X4) (Escherichia coli, UniProt A0A3T0V9Y5).
T3 construct: gene mtr-1
Put plainly: purified enzyme inhibition assay, tigecycline absorbance at […] nm. Format: biochemical.

Assay [2] relates to T4, Staphylococcus aureus MRSA 1518.
T4 construct: 1518
Description: microbe, parasite or virus in culture. More on the design: Broth microdilution MIC, bacterial growth inhibition in Mueller-Hinton broth. As to conditions: Staphylococcus aureus, MRSA, read-out: MIC (μg/mL). As to the method:
(§2) Bacterial and chemical reagents Sequential culturing of E. coli ATCC 25922 in the presence of subinhibitory levels of tigecycline, azidothymidine, or the combination. After 24 h co-incubation, any cultures that grew at higher than the MIC levels were passaged on drug free MHA plates and the MIC was then determined by broth microdilution. This serial passaging was repeated daily for 30 days. To further evaluate the synergistic activity between tigecycline and three candidates, standard checkerboard microdilution in E. coli B3-1 was performed. […] Thus, we next focused our insights on the potentiation potency of azidothymidine with tigecycline. We first evaluated the stability of the azidothymidine-tigecycline combination in the presence of salt ions and serum, which are two critical factors that affect the in vivo efficacy of drugs[20],[21]. […] However, addition of divalent cations such as Ca^2+ and Mg^2+ (10 mM) abolished its potentiation activity, but EDTA could augment the synergistic effect (Supplementary Fig. 2). Considering that divalent cations and EDTA are associated with membrane permeability, we speculated that entrance of two drugs into bacteria contribute to their activity. Next, we assessed the potency of this combination in a panel of clinical isolates from animals and environmental samples (Supplementary Tables 2 and 3). […] To investigate whether this potentiation is also applicable in Tet(X)-negative bacteria, standard ATCC sensitive bacteria and other E. coli isolates with MIC values of ≤1 μg mL^−1 for tigecycline were tested.

Another assay relates to T5, E. coli B9-1 (tet(X4)).
T5 construct: B9-1
Description: microbe, parasite or virus in culture. The note with it: Escherichia coli, read-out: MIC (μg/mL). The arrangement: Broth microdilution MIC, bacterial growth inhibition in Mueller-Hinton broth. Here is the method: as §2

Assay [3] has as its system T6, S. aureus 215 (LZD^R + cfr).
T6 construct: 215
Put plainly: microbe, parasite or virus in culture. The arrangement: Broth microdilution MIC, bacterial growth inhibition in Mueller-Hinton broth. As to conditions: Staphylococcus aureus, read-out: MIC (μg/mL). As to the method: as §2

Assay [4] concerns T7, E. coli B2 (NDM-5 + MCR-1).
T7 construct: B2
Put plainly: microbe, parasite or virus in culture. The note with it: Escherichia coli, read-out: MIC (μg/mL). The arrangement: Broth microdilution MIC, bacterial growth inhibition in Mueller-Hinton broth. As to the method: as §2

The test system of assay [5] is T8, Proteus penneri 2F1-3 (tet(X4)).
T8 construct: 2F1-3 (tet(X4))
Put plainly: microbe, parasite or virus in culture. More on the design: Broth microdilution MIC, bacterial growth inhibition in Mueller-Hinton broth. As to conditions: read-out: MIC (μg/mL). As to the method:
as §2

In assay [6] the test system is T9, Staphylococcus aureus ATCC 29213.
T9 construct: ATCC 29213
Put plainly: microbe, parasite or virus in culture. As to conditions: Staphylococcus aureus, ATCC29213, read-out: MIC (μg/mL). More on the design: Broth microdilution MIC, bacterial growth inhibition in Mueller-Hinton broth. As to the method: as §2

For another assay, the system named is T10, E. coli B3-1 (tet(X4)).
T10 construct: B3-1
Put plainly: microbe, parasite or virus in culture. The note with it: Escherichia coli. More on the design: Broth microdilution MIC, bacterial growth inhibition in Mueller-Hinton broth. Here is the method:
as §2

For another assay, the system named is T11, E. coli C3 (NDM-1).
T11 construct: C3
Put plainly: microbe, parasite or virus in culture. The arrangement: Broth microdilution MIC, bacterial growth inhibition in Mueller-Hinton broth. The note with it: Escherichia coli, read-out: MIC (μg/mL). As to the method: as §2

For another assay, the system named is T12, E. coli P3-1 (tet(X4)).
T12 construct: P3-1
Put plainly: microbe, parasite or virus in culture. The arrangement: Broth microdilution MIC, bacterial growth inhibition in Mueller-Hinton broth. The note with it: Escherichia coli, read-out: MIC (μg/mL). Here is the method: as §2

The test system of the next assay is T13, E. coli B8-1 (tet(X4)).
T13 construct: B8-1
Description: microbe, parasite or virus in culture. More on the design: Broth microdilution MIC, bacterial growth inhibition in Mueller-Hinton broth. The note with it: Escherichia coli, read-out: MIC (μg/mL). Here is the method: as §2

Assay [7] has as its system T14, Enterococcus faecalis VRE A4.
T14 construct: VRE A4
Put plainly: microbe, parasite or virus in culture. The arrangement: Broth microdilution MIC, bacterial growth inhibition in Mueller-Hinton broth. As to conditions: read-out: MIC (μg/mL). As to the method:
as §2

Assay [8] relates to T15, Escherichia coli ATCC 25922.
T15 construct: ATCC 25922
Put plainly: microbe, parasite or virus in culture. As to conditions: Escherichia coli, ATCC25922, read-out: MIC (μg/mL). More on the design: Broth microdilution MIC, bacterial growth inhibition in Mueller-Hinton broth. Here is the method:
as §2

For assay [9], the system named is T16, Salmonella enterica ATCC 13076.
T16 construct: ATCC 13076
Put plainly: microbe, parasite or virus in culture. As to conditions: ATCC13076, read-out: MIC (μg/mL). The arrangement: Broth microdilution MIC, bacterial growth inhibition in Mueller-Hinton broth. Here is the method: as §2

For the next assay, the system named is T17, E. coli W7-1 (tet(X4)).
T17 construct: W7-1
Put plainly: microbe, parasite or virus in culture. More on the design: Broth microdilution MIC, bacterial growth inhibition in Mueller-Hinton broth. The note with it: Escherichia coli, read-out: MIC (μg/mL). As to the method:
as §2

For a further assay, the system named is T18, E. coli G6 (NDM-5).
T18 construct: G6
Put plainly: microbe, parasite or virus in culture. The arrangement: Broth microdilution MIC, bacterial growth inhibition in Mueller-Hinton broth. As to conditions: Escherichia coli, read-out: MIC (μg/mL). Here is the method:
as §2

In assay [10] the test system is T19, Shigella 1F25-27 (tet(X4)).
T19 construct: 1F25-27 (tet(X4))
Description: microbe, parasite or virus in culture. The arrangement: Broth microdilution MIC, bacterial growth inhibition in Mueller-Hinton broth. As to conditions: read-out: MIC (μg/mL). Here is the method: as §2

A further assay concerns T20, E. coli P10-1 (tet(X4)).
T20 construct: P10-1
Description: microbe, parasite or virus in culture. More on the design: Broth microdilution MIC, bacterial growth inhibition in Mueller-Hinton broth. The note with it: Escherichia coli, read-out: MIC (μg/mL). Here is the method: as §2

The test system of assay [11] is T21, Staphylococcus aureus MRSA T144.
T21 construct: T144
Description: microbe, parasite or virus in culture. More on the design: Broth microdilution MIC, bacterial growth inhibition in Mueller-Hinton broth. As to conditions: Staphylococcus aureus, MRSA, read-out: MIC (μg/mL). As to the method:
as §2

Consider `Cc1cn([C@H]2C[C@H](N=[N+]=[N-])[C@@H](CO)O2)c(=O)[nH]c1=O` [AZI, azidothymidine], for which the MIC is 8 µg/mL in [1]; > 32 µg/mL with E. brevis S1-3 (tet(X3)); > 16 µg/mL in assay [2]; 1 µg/mL with E. coli B9-1 (tet(X4)); > 16 µg/mL in assay [3]; > 16 µg/mL in assay [4]. The MIC is 8 µg/mL in assay [5]; > 16 µg/mL in assay [6]; 1 µg/mL with E. coli B3-1 (tet(X4)) (read-out: MIC (μg/mL)); > 16 µg/mL in the assay on E. coli C3 (NDM-1); 0.5 µg/mL in the assay with E. coli P3-1 (tet(X4)); 0.5 µg/mL in the assay with E. coli B8-1 (tet(X4)). Besides, the MIC was > 16 µg/mL in [7]; 2 µg/mL in assay [8]; 0.25 µg/mL in assay [9]; 2 µg/mL with E. coli W7-1 (tet(X4)); 4 µg/mL in the assay with E. coli G6 (NDM-5); 2 µg/mL in [10]. Also, the MIC was 0.25 µg/mL in the assay on E. coli P10-1 (tet(X4)) and > 16 µg/mL in assay [11]. This molecule gave an IC50 at Tet(X4) of 106 nM.
`CN(C)c1cc(NC(=O)CNC(C)(C)C)c(O)c2c1C[C@H]1C[C@H]3[C@H](N(C)C)C(O)=C(C(N)=O)C(=O)[C@@]3(O)C(O)=C1C2=O` [Tigecycline]: the MIC with E. coli B3-1 (tet(X4)) (read-out: MHB (MIC, μg/mL)) turned out to be 32 µg/mL.
